One block for each compound: values may come before it.
How the values were obtained:
[1] = Retardation factor of the compound in deionized water at 1 g at pH 3.3 after 90 mins by TLC analysis; type: physicochemical; conditions: pH 3.3, 1.5 h
[2] = Drug degradation in deionized water assessed as 3-hydroxy-4-methyl-2(5H)-thiophenone level at 100 mg at pH 3.3 after 90 mins by IR/TLC analysis; type: physicochemical; conditions: pH 3.3, 1.5 h
[3] = Drug degradation in oxygen-18 enriched water assessed as 5,3-formyl-3,6-dihydro-6-phenyl-2,5(lH,4H)-pyrazinedione level at 60 mg by mass spectroscopic analysis; conditions: in vivo
[4] = Drug degradation in deionized water assessed as 5,3-formyl-3,6-dihydro-6-phenyl-2,5(lH,4H)-pyrazinedione level at 100 mg at pH 3.3 after 90 mins by IR/TLC analysis; type: physicochemical; conditions: pH 3.3, 1.5 h
[5] = Drug recovery in Purdue-Wistar rat feces at 1.6 mg/ml, po after 24 hrs; conditions: faeces
[6] = Drug recovery in ICR mouse feces at 1.6 mg/ml, po after 24 hrs; conditions: faeces
Mus musculus = experiment: Toxicity in po dosed ICR mouse; type: organism-based; conditions: in vivo

Structure (SMILES): CC1=C(C(=O)O)N2C(=O)[C@@H](NC(=O)[C@H](N)c3ccccc3)[C@H]2SC1 [CEPHALEXIN ANHYDROUS]
dose excreted at 24 h [5]: 99% | dose excreted at 24 h [6]: 99%

Structure (SMILES): CC1=C(C(=O)O)N2C(=O)[C@@H](NC(=O)[C@H](N)c3ccccc3)[C@H]2SC1.O [CEPHALEXIN]
LD (Mus musculus): > 5000 mg/kg

Results, then the compound that gave them:

Rf [1]: 0.78
Structure (SMILES): O=CC1NC(=O)C(c2ccccc2)NC1=O (stereo not drawn)

Rf [1]: 0.91
Structure (SMILES): CC1=C(O)C(=O)SC1

Stability [2]: Unstable | Stability [3]: Unstable | Stability [4]: Unstable
Structure (SMILES): CC1CSC(C2NC(=O)C(c3ccccc3)NC2=O)N=C1C(=O)[O-].[Na+] (stereo not drawn)
